Reference: PubChem BioAssay AID1963967 (Molecular Pharmacology Branch, DTP, NCI, 2024)
pIC50: −log10 of the molar value.

System: 855422-203-R-J1-PDC spheroids with HUVEC/MSC, viability
Assay: Anticancer human tumor 855422-203-R-J1-PDC patient-derived bladder carcinoma cell line growth inhibition [PI3K]
Details: for pIC50: curve of first compound; for viability, T/C: stronger effect = lower value
Procedure, shortened: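 Viability of mixed-cell spheroids was determined after exposure to pairwise combinations, one partner being inavolisib, alpelisib, duvelisib or copanlisib. Highest tested concentration matched clinical Cmax where known and 10 microM where not, descending in half-log steps.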

[1] = second compound 0.0316 µM, first compound 0.0316 µM
[2] = second compound 0.0316 µM, first compound 0.1 µM
[3] = second compound 0.0316 µM, first compound 0.316 µM
[4] = second compound 0.0316 µM, first compound 1 µM
[5] = second compound 0.0316 µM, first compound 3.16 µM
[6] = second compound 0.0316 µM, first compound 10 µM
[7] = second compound 0.1 µM, first compound 0.0316 µM
[8] = second compound 0.1 µM, first compound 0.1 µM
[9] = second compound 0.1 µM, first compound 0.316 µM
[10] = second compound 0.1 µM, first compound 1 µM
[11] = second compound 0.1 µM, first compound 3.16 µM
[12] = second compound 0.1 µM, first compound 10 µM
[13] = second compound 0.316 µM, first compound 0.0316 µM
[14] = second compound 0.316 µM, first compound 0.1 µM
[15] = second compound 0.316 µM, first compound 0.316 µM
[16] = second compound 0.316 µM, first compound 1 µM
[17] = second compound 0.316 µM, first compound 3.16 µM
[18] = second compound 0.316 µM, first compound 10 µM
[19] = second compound 1 µM, first compound 0.0316 µM
[20] = second compound 1 µM, first compound 0.1 µM
[21] = second compound 1 µM, first compound 0.316 µM
[22] = second compound 1 µM, first compound 1 µM
[23] = second compound 1 µM, first compound 3.16 µM
[24] = second compound 1 µM, first compound 10 µM
[25] = second compound 3.16 µM, first compound 0.0316 µM
[26] = second compound 3.16 µM, first compound 0.1 µM
[27] = second compound 10 µM, first compound 0.0316 µM
[28] = second compound 10 µM, first compound 0.1 µM
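Note: agents incubated with spheroids for one week before read-out.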
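Throughout, for viability, T/C: 100% = DMSO vehicle-treated control wells.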

With `CC(Cn1ccc(-c2ccc(C#N)c(Cl)c2)n1)NC(=O)c1cc(C(C)O)[nH]n1` (stereo unspecified) + CC(Nc1ncnc2nc[nH]c12)c1cc2cccc(Cl)c2c(=O)n1-c1ccccc1 the pIC50 (second compound 0.0316 µM) was < 5.00, the pIC50 (second compound 0.1 µM) was < 5.00 and the pIC50 (second compound 0.316 µM) was < 5.00. For the same molecule, the pIC50 (second compound 1 µM) was < 5.00, the pIC50 (second compound 3.16 µM) was < 5.00 and the pIC50 (second compound 10 µM) was < 5.00. It also gave a viability, T/C [1] of 105%, a viability, T/C [2] of 93.3% and a viability, T/C [3] of 113%. It also gave a viability, T/C [4] of 98.3%, a viability, T/C [5] of 91.6% and a viability, T/C [6] of 67.8%. The viability, T/C [7] was 105%, the viability, T/C [8] was 107% and the viability, T/C [9] was 106%. For the same molecule, the viability, T/C [10] was 105%, the viability, T/C [11] was 90.3% and the viability, T/C [12] was 82.8%. For the same molecule, the viability, T/C [13] was 97%, the viability, T/C [14] was 104% and the viability, T/C [15] was 96.6%. For the same molecule, the viability, T/C [16] was 112%, the viability, T/C [17] was 89.9% and the viability, T/C [18] was 77.4%. The viability, T/C [19] was 92.9%, the viability, T/C [20] was 108% and the viability, T/C [21] was 107%. For the same molecule, the viability, T/C [22] was 103%, the viability, T/C [23] was 95.5% and the viability, T/C [24] was 95.7%. The viability, T/C [25] was 97.3%, the viability, T/C [26] was 91.1% and the viability, T/C (second compound 3.16 µM, first compound 0.316 µM) was 108%. For the same molecule, the viability, T/C (second compound 3.16 µM, first compound 1 µM) was 101%, the viability, T/C (second compound 3.16 µM, first compound 3.16 µM) was 90.4% and the viability, T/C (second compound 3.16 µM, first compound 10 µM) was 78.7%. It also gave a viability, T/C [27] of 88.5%, a viability, T/C [28] of 84.9% and a viability, T/C (second compound 10 µM, first compound 0.316 µM) of 89.5%. It also gave a viability, T/C (second compound 10 µM, first compound 1 µM) of 82.3%, a viability, T/C (second compound 10 µM, first compound 3.16 µM) of 74.5% and a viability, T/C (second compound 10 µM, first compound 10 µM) of 70%.

With `Cn1ncnc1[C@H]1c2n[nH]c(=O)c3cc(F)cc(c23)N[C@@H]1c1ccc(F)cc1` + Cc1nc(NC(=O)N2CCCC2C(N)=O)sc1-c1ccnc(C(C)(C)C(F)(F)F)c1 the pIC50 (second compound 0.0316 µM) was < 7.00, the pIC50 (second compound 0.1 µM) was < 7.00 and the pIC50 (second compound 0.316 µM) was < 7.00. For the same molecule, the pIC50 (second compound 1 µM) was < 7.00, the pIC50 (second compound 3.16 µM) was 9.04 and the pIC50 (second compound 10 µM) was > 9.50. It also gave a viability, T/C (second compound 0.0316 µM, first compound 0.000316 µM) of 112%, a viability, T/C (second compound 0.0316 µM, first compound 0.001 µM) of 92.8% and a viability, T/C (second compound 0.0316 µM, first compound 0.00316 µM) of 112%. For the same molecule, the viability, T/C (second compound 0.0316 µM, first compound 0.01 µM) was 96.8%, the viability, T/C [1] was 105% and the viability, T/C [2] was 109%. It also gave a viability, T/C (second compound 0.1 µM, first compound 0.000316 µM) of 105%, a viability, T/C (second compound 0.1 µM, first compound 0.001 µM) of 102% and a viability, T/C (second compound 0.1 µM, first compound 0.00316 µM) of 102%. The viability, T/C (second compound 0.1 µM, first compound 0.01 µM) was 101%, the viability, T/C [7] was 101% and the viability, T/C [8] was 105%. It also gave a viability, T/C (second compound 0.316 µM, first compound 0.000316 µM) of 92.9%, a viability, T/C (second compound 0.316 µM, first compound 0.001 µM) of 93.8% and a viability, T/C (second compound 0.316 µM, first compound 0.00316 µM) of 95.8%. The viability, T/C (second compound 0.316 µM, first compound 0.01 µM) was 94.7%, the viability, T/C [13] was 98.6% and the viability, T/C [14] was 97.2%. It also gave a viability, T/C (second compound 1 µM, first compound 0.000316 µM) of 72.7%, a viability, T/C (second compound 1 µM, first compound 0.001 µM) of 74% and a viability, T/C (second compound 1 µM, first compound 0.00316 µM) of 79.2%. It also gave a viability, T/C (second compound 1 µM, first compound 0.01 µM) of 75.5%, a viability, T/C [19] of 79.4% and a viability, T/C [20] of 68.3%. The viability, T/C (second compound 3.16 µM, first compound 0.000316 µM) was 51.6%, the viability, T/C (second compound 3.16 µM, first compound 0.001 µM) was 49.8% and the viability, T/C (second compound 3.16 µM, first compound 0.00316 µM) was 47.1%. For the same molecule, the viability, T/C (second compound 3.16 µM, first compound 0.01 µM) was 47.7%, the viability, T/C [25] was 49.1% and the viability, T/C [26] was 44.6%. For the same molecule, the viability, T/C (second compound 10 µM, first compound 0.000316 µM) was 25.6%, the viability, T/C (second compound 10 µM, first compound 0.001 µM) was 25.1% and the viability, T/C (second compound 10 µM, first compound 0.00316 µM) was 22.2%. The viability, T/C (second compound 10 µM, first compound 0.01 µM) was 27.8%, the viability, T/C [27] was 25.1% and the viability, T/C [28] was 21.3%.

With `C[C@@H](NC(=O)c1ncnc(N)c1Cl)c1ncc(C(=O)Nc2cc(C(F)(F)F)c(Cl)cn2)s1` + COc1c(OCCCN2CCOCC2)ccc2c3n(c(=NC(=O)c4cnc(N)nc4)nc12)CCN3 the pIC50 (second compound 0.00316 µM) was < 5.00, the pIC50 (second compound 0.01 µM) was < 5.00 and the pIC50 (second compound 0.0316 µM) was < 5.00. For the same molecule, the pIC50 (second compound 0.1 µM) was > 7.50, the pIC50 (second compound 0.316 µM) was > 7.50 and the pIC50 (second compound 1 µM) was > 7.50. For the same molecule, the viability, T/C (second compound 0.00316 µM, first compound 0.0316 µM) was 93.8%, the viability, T/C (second compound 0.00316 µM, first compound 0.1 µM) was 91.3% and the viability, T/C (second compound 0.00316 µM, first compound 0.316 µM) was 104%. It also gave a viability, T/C (second compound 0.00316 µM, first compound 1 µM) of 97.4%, a viability, T/C (second compound 0.00316 µM, first compound 3.16 µM) of 109% and a viability, T/C (second compound 0.00316 µM, first compound 10 µM) of 113%. For the same molecule, the viability, T/C (second compound 0.01 µM, first compound 0.0316 µM) was 80%, the viability, T/C (second compound 0.01 µM, first compound 0.1 µM) was 85.2% and the viability, T/C (second compound 0.01 µM, first compound 0.316 µM) was 88.5%. The viability, T/C (second compound 0.01 µM, first compound 1 µM) was 89.4%, the viability, T/C (second compound 0.01 µM, first compound 3.16 µM) was 108% and the viability, T/C (second compound 0.01 µM, first compound 10 µM) was 83%. For the same molecule, the viability, T/C [1] was 59.4%, the viability, T/C [2] was 69.3% and the viability, T/C [3] was 68.8%. It also gave a viability, T/C [4] of 61.6%, a viability, T/C [5] of 71.3% and a viability, T/C [6] of 36.7%. The viability, T/C [7] was 35.9%, the viability, T/C [8] was 38.3% and the viability, T/C [9] was 33.7%. For the same molecule, the viability, T/C [10] was 35.9%, the viability, T/C [11] was 27.8% and the viability, T/C [12] was 16.2%. It also gave a viability, T/C [13] of 13.4%, a viability, T/C [14] of 12.5% and a viability, T/C [15] of 12.5%. The viability, T/C [16] was 13.7%, the viability, T/C [17] was 11.2% and the viability, T/C [18] was 5.99%. It also gave a viability, T/C [19] of 4.22%, a viability, T/C [20] of 7.01% and a viability, T/C [21] of 5.73%. It also gave a viability, T/C [22] of 4.13%, a viability, T/C [23] of 3.47% and a viability, T/C [24] of 1.26%.
